Here are results for four compounds from patent US10295529B2, “Feline bitter taste receptors and methods” (Applied Food Biotechnology, Inc., priority 2013, dated 2019).

What all share (format): cell-based, feline
Test [1] concerns fTAS2R38. The experiment in a line: Fluo-4AM calcium assay, cells transiently expressing fTAS2R38 with Gα16gust44. Here is the method:
(§1) Cell lines that transiently express a desired TAS2R disclosed herein are generated by transfecting the appropriate expression vector, e.g., pcDNA3.1D-FLAGV5His-TAS2R38, constructed as described above in Ex. 2A into cells of a eukaryotic cell line (e.g., ATCC #CRL-11268 or Life Technologies, Cat# R700-07).
(§2) On day 0, 60,000 cells per well are plated on poly lysine coated, black 96 well plates with clear bottoms (Costar). The following day the cells are transfected with 150 ng TAS2R38 expression vector, e.g., pcDNA3.1D-FLAGV5His (Invitrogen) along with 45 ng of Gα16 chimera containing the last 44 amino acids of rat gustducin (Gα16gust44) with 0.5 ul Lipofectamine 2000 (Invitrogen) per well. Cells are then incubated 22-44 hours at 37° C. 5% CO2.
(§3) The expression of fTAS2R38 is evaluated by testing for the presence of a functional response to a known hTAS2R38 ligand (e.g., PTC), determined via automated calcium imaging using a Fluo-4AM (Life Technologies Corporation) Calcium Assay. Fluo-4AM is a fluorescent indicator of intracellular calcium dynamics (change in concentration) and allows monitoring changes in the calcium concentration, particularly an increase in response to receptor activation occurring after agonist exposure.
(§4) Testing for a functional response of fTAS2R38 to the known hTAS2R38 ligands, PTC and PROP, and of fTAS2R43 to the known hTAS2R43 ligands, aloin, denatonium and saccharine), was determined via automated calcium imaging using the Fluo-4AM (Life Technologies Corporation) Calcium Assay.

Test [2] deals with fTAS2R38. As to the kind of experiment: Fluo-4AM calcium assay, stable Gα16-gustducin 44/TAS2R38 cell line. The text has this:
Fluo-4AM is a fluorescent indicator of intracellular calcium dynamics (change in concentration) and allows monitoring changes in the calcium concentration, particularly an increase in response to receptor activation occurring after agonist exposure.

In the next test the test system is fTAS2R43. The experiment in a line: Fluo-4AM calcium assay, cells transiently expressing fTAS2R43 with Gα16gust44. Here is the method:
as §1, §2, §3
Generation of cell lines transiently expressing the other fTAS2Rs disclosed herein is analogous.
as §4

In the case of `CCCc1cc(=O)[nH]c(=S)[nH]1` [PROP, 6-n-propylthiouracil], the stimulation of receptor result in the test with fTAS2R38 [1] (30 μM PROP, transient expression) is reported as “not stimulated”. Also, the “activation of cell line” value in the test on fTAS2R38 [2] (30 μm PROP) was “not activated”.

As to `NC(=S)Nc1ccccc1` [PTC, phenylthiocarbamide], the activation over baseline was 81% in the test with fTAS2R38 [1] (100 μM PTC, transient expression) and 90% in the test on fTAS2R38 [2] (100 μM PTC).

In the case of `CCCN(CCC)S(=O)(=O)c1ccc(C(=O)O)cc1` [probenecid, p-(dipropylsulfamoyl)benzoic acid], in the test with fTAS2R43 (1 mM probenecid, response of fTAS2R43 to aloin), the “inhibition of the response to aloin” value is given as “inhibited”. The “inhibition of the response to denatonium” value in the test with fTAS2R43 (1 mM probenecid, response of fTAS2R43 to denatonium) is on record as “inhibited”. For the same compound, the “inhibition of the response to PTC” value with fTAS2R38 [1] (1 mM probenecid, response of fTAS2R38 to PTC) is listed as “inhibited”.

Regarding `O=C1NS(=O)(=O)c2ccccc21` [saccharin], in the test with fTAS2R43 (6.7 mM saccharin, transient expression), the stimulation of receptor result was “not stimulated”.
